Assay results published in patent publication US20250353891A1 (MEDIMMUNE LIMITED, priority 2022, published 2025).
Starred links: 1 amine or outer side, 2 acyl side, 3 side chain; linkers in the order of their positions; H or OH if unused. Non-standard residues stand in square brackets, D forms with d. Residues, ends and D or L forms follow the SMILES beside them. Groups on a side chain read outwards from the residue. *: point of attachment. Dip = N[C@H](C(=O)O)C(c1ccccc1)c1ccccc1; γGlu = O=C(O)[C@H](CCC(=O)[*:2])N[*:1]; Stearoyl = CCCCCCCCCCCCCCCCCC(=O)*; αMeF = C[C@](N)(Cc1ccccc1)C(=O)O; Cha = N[C@@H](CC1CCCCC1)C(=O)O; PEG2 = NCCOCCOCCC(=O)O; Aib = CC(C)(N)C(=O)O

How the values were obtained:
[1] = Mouse acute food intake study; assay type: in vivo; conditions: male C57Bl/6 mice, s.c., dose 10 nmol/kg, cumulative food intake at 24 hr vs vehicle
Method in brief: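 Peptide or vehicle went subcutaneously (5 mL/kg) to 6-8 h-fasted male C57Bl/6 mice shortly before the dark phase, with groups balanced on body weight and 24-hour intake. Cumulative food consumption was derived from 48 h of automated BioDaq monitoring with free food and water access.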

[2] = Proteolytic resistance to FasSSIF/Pancreatin; assay type: in vitro ADME; conditions: simulated intestinal fluid
Protocol: A fresh suspension of FasSSIF/P (Fasted-State Simulated Intestinal Fluid+USP Pancreatin®) was prepared according to that described by Galia, Nicolaides, Hörter, Löbenberg, Reppas and Dressman: Pharm. Res. 15 (1998) 698-705, and USP XL requirements. The resulting preparation was used immediately without storage.
Peptide for evaluation (1.0 mg) was dissolved in pre-warmed FasSSIF without Pancreatin® (200 μL). To this fresh FasSSIF/Pancreatin® (100 μL) was added to initiate potential proteolysis. Following momentary vortexing of the reaction tube the mixture was incubated at 37° C. in a thermostatic water bath for the duration of the experiment. 25 μL aliquot of the co-incubated peptide-enzyme mixture was periodically withdrawn (t=0, 5, 10 15 and 30 min) and quenched immediately by addition to a solution of 10% TFA in 1:1 water/acetonitrile (75 μL) to arrest proteolytic activity. Quenched samples were centrifuged (7800 RPM, 3 mins) to pellet solids and 10 μL aliquots of the supernatant solution were analyzed using analytical RP-HPLC as follows: Analytical RP-HPLC method: Agilent Polaris C8-A column (4.6×100 mm, 3 micron) eluted with a linear binary gradient of 10-90% MeCN (0.1% TFA v/v) in water (0.1% TFA v/v) over either 10 or 15 mins at 1.5 mL min^−1 at 40° C. with detection by UV absorption at 210 nm. Manual integration (AUC) allowed estimation of remaining intact peptide over the time course of the experiment.

[3] = molecular target: human GLP-1 receptor (hGLP-1R) (Homo sapiens, UniProt P43220); test: cAMP production (HTRF) in CHO cells expressing hGLP-1R; assay type: cell-based; set-up: expressed in transfected cells; conditions: for EC50: Table 6, peptides modified at position 17, cAMP in CHO hGLP-1R cells, geometric mean, read-out: hGLP-1R EC50; for % Relative Potency Ratio: Table 6, % GLP-1R activity relative to GLP-1 / % GlucR activity relative to glucagon
human GLP-1 receptor (hGLP-1R), sequence (P43220 24-463): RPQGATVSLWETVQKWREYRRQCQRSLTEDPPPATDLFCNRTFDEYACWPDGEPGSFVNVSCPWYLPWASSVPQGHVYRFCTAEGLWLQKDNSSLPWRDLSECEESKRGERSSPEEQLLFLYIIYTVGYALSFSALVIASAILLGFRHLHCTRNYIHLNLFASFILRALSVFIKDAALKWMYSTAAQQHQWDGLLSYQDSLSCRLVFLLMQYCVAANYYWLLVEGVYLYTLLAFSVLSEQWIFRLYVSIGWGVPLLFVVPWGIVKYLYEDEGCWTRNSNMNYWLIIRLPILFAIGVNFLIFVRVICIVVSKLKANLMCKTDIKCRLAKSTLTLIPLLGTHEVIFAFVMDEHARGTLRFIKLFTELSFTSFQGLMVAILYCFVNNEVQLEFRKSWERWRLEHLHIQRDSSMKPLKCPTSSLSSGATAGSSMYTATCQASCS
Method in brief: (§1)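 Read-out: HTRF cAMP (anti-cAMP cryptate donor, cAMP-d2 acceptor in conjugate/lysis buffer), converted to % Delta F and fitted by 4-parameter logistic for EC50. Cell densities were 1×10^5 cells/mL (hGLP-1R) or 2×10^5 cells/mL (hGCGR). Stimulation lasted 30 min at room temperature.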

[4] = molecular target: human glucagon receptor (hGCGR) (Homo sapiens, UniProt P47871); test: cAMP production (HTRF) in CHO cells expressing hGCGR; assay type: cell-based; set-up: expressed in transfected cells; conditions: Table 6, peptides modified at position 17; cAMP in CHO hGCGR cells; geometric mean; read-out: hGluc-R EC50
human glucagon receptor (hGCGR), sequence (P47871 26-477): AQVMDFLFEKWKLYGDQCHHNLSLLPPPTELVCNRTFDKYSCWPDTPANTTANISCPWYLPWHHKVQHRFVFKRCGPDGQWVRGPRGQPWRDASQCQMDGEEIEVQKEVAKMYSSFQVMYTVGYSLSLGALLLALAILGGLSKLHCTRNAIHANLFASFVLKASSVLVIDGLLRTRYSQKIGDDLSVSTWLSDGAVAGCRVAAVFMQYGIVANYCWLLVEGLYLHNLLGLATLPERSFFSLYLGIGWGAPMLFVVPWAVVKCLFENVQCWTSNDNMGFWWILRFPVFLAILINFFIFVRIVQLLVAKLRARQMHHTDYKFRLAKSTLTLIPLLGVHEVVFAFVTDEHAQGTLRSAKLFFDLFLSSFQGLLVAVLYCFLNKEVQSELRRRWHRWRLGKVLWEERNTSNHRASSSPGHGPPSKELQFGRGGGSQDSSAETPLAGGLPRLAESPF
Method in brief: as §1

Row | SMILES | remaining at 5 min, 3.3 mg/mL [2] | remaining at 10 min, 3.3 mg/mL [2] | remaining at 0.25 h, 3.3 mg/mL [2] | remaining at 0.5 h, 3.3 mg/mL [2] | EC50 [3] | % Relative Potency Ratio [3] | EC50 [4] | 24 hr % Vehicle Food Intake [1]
1 | CCCCCCCCCCCCCCCCCC(=O)N[C@@H](CCC(=O)N[C@@H](CCC(=O)NCCOCCOCCC(=O)NCCOCCOCCC(=O)NCCCC[C@H](NC(=O)[C@H](CO)NC(=O)[C@H](CC(=O)O)NC(=O)[C@H](CC(C)C)NC(=O)[C@@H](NC(=O)[C@H](CCCCN)NC(=O)[C@H](CO)NC(=O)[C@@H](NC(=O)[C@H](CC(=O)O)NC(=O)[C@H](CO)NC(=O)[C@@H](NC(=O)[C@](C)(Cc1ccccc1)NC(=O)[C@H](CO)NC(=O)CNC(=O)[C@H](CCC(N)=O)NC(=O)[C@H](CO)NC(=O)[C@@H](N)Cc1c[nH]cn1)[C@@H](C)O)C(C)C)C(c1ccccc1)c1ccccc1)C(=O)N[C@@H](C)C(=O)N[C@@H](C)C(=O)N[C@@H](CCC(N)=O)C(=O)N[C@@H](CC(=O)O)C(=O)N[C@@](C)(Cc1ccccc1)C(=O)N[C@H](C(=O)N[C@@H](CCC(=O)O)C(=O)NC(C)(C)C(=O)N[C@H](C(=O)N[C@H](C(=O)N[C@@H](CC(N)=O)C(=O)N[C@H](C(N)=O)[C@@H](C)O)[C@@H](C)CC)[C@@H](C)CC)C(C)C)C(=O)O)C(=O)O [Peptide 50] (H-HSQGS[αMeF]TSDVSK[Dip]LDSK([PEG2-PEG2-γGlu-γGlu-Stearoyl])AAQD[αMeF]VE[Aib]IINT-NH2) | – | – | – | 98% | 4.9 pM | 3.5 | 8.74 pM | 78.5%
2 | CCCCCCCCCCCCCCCCCC(=O)N[C@@H](CCC(=O)N[C@@H](CCC(=O)NCCOCCOCCC(=O)NCCOCCOCCC(=O)NCCCC[C@H](NC(=O)[C@H](CO)NC(=O)[C@H](CC(=O)O)NC(=O)[C@H](CC(C)C)NC(=O)[C@@H](NC(=O)[C@H](CCCCN)NC(=O)[C@H](CO)NC(=O)[C@@H](NC(=O)[C@H](CC(=O)O)NC(=O)[C@H](CO)NC(=O)[C@@H](NC(=O)[C@](C)(Cc1ccccc1)NC(=O)[C@H](CO)NC(=O)CNC(=O)[C@H](CCC(N)=O)NC(=O)[C@H](CO)NC(=O)[C@@H](N)Cc1c[nH]cn1)[C@@H](C)O)C(C)C)C(c1ccccc1)c1ccccc1)C(=O)N[C@@H](C)C(=O)N[C@@H](C)C(=O)N[C@@H](CCC(N)=O)C(=O)N[C@@H](CC(=O)O)C(=O)N[C@@](C)(Cc1ccccc1)C(=O)N[C@H](C(=O)N[C@@H](CCC(=O)O)C(=O)NC(C)(C)C(=O)N[C@@H](CC1CCCCC1)C(=O)N[C@@H](C)C(=O)N[C@@H](CC(N)=O)C(=O)N[C@H](C(N)=O)[C@@H](C)O)C(C)C)C(=O)O)C(=O)O [Peptide 52] (H-HSQGS[αMeF]TSDVSK[Dip]LDSK([PEG2-PEG2-γGlu-γGlu-Stearoyl])AAQD[αMeF]VE[Aib][Cha]ANT-NH2; N-terminus assumed) | – | – | – | 90% | 22.7 pM | 0.6 | 6.65 pM | –
3 | CCCCCCCCCCCCCCCCCC(=O)N[C@@H](CCC(=O)N[C@@H](CCC(=O)NCCOCCOCCC(=O)NCCOCCOCCC(=O)NCCCC[C@H](NC(=O)[C@H](CO)NC(=O)[C@H](CC(=O)O)NC(=O)[C@H](CC(C)C)NC(=O)[C@@H](NC(=O)[C@H](CCCCN)NC(=O)[C@H](CO)NC(=O)[C@@H](NC(=O)[C@H](CC(=O)O)NC(=O)[C@H](CO)NC(=O)[C@@H](NC(=O)[C@](C)(Cc1ccccc1)NC(=O)[C@H](CO)NC(=O)CNC(=O)[C@H](CCC(N)=O)NC(=O)[C@H](CO)NC(=O)[C@@H](N)Cc1c[nH]cn1)[C@@H](C)O)C(C)C)C(c1ccccc1)c1ccccc1)C(=O)N[C@@H](C)C(=O)N[C@@H](C)C(=O)N[C@@H](CCC(N)=O)C(=O)N[C@@H](CC(=O)O)C(=O)N[C@@](C)(Cc1ccccc1)C(=O)N[C@H](C(=O)N[C@@H](CCC(=O)O)C(=O)NC(C)(C)C(=O)N[C@H](C(=O)N[C@H](C(=O)N[C@@H](CCC(=O)O)C(=O)NCC(=O)NCC(N)=O)C(C)C)C(C)C)C(C)C)C(=O)O)C(=O)O [Peptide 53] (H-HSQGS[αMeF]TSDVSK[Dip]LDSK([PEG2-PEG2-γGlu-γGlu-Stearoyl])AAQD[αMeF]VE[Aib]VVEGG-NH2) | – | – | – | 92% | 3.03 pM | 12.3 | 18.9 pM | –

The next lines start with results.

Row | remaining at 5 min, 3.3 mg/mL [2] | remaining at 10 min, 3.3 mg/mL [2] | remaining at 0.25 h, 3.3 mg/mL [2] | remaining at 0.5 h, 3.3 mg/mL [2] | EC50 [3] | % Relative Potency Ratio [3] | EC50 [4] | SMILES | 24 hr % Vehicle Food Intake [1]
4 | 90% | 88% | 83% | 75% | 1.72 pM | 2.7 | 2.38 pM | CCCCCCCCCCCCCCCCCC(=O)N[C@@H](CCC(=O)N[C@@H](CCC(=O)NCCOCCOCCC(=O)NCCOCCOCCC(=O)NCCCC[C@H](NC(=O)[C@H](CO)NC(=O)[C@H](CC(=O)O)NC(=O)[C@H](CC(C)C)NC(=O)[C@@H](NC(=O)[C@H](CCCCN)NC(=O)[C@H](CO)NC(=O)[C@@H](NC(=O)[C@H](CC(=O)O)NC(=O)[C@H](CO)NC(=O)[C@@H](NC(=O)[C@](C)(Cc1ccccc1)NC(=O)[C@H](CO)NC(=O)CNC(=O)[C@H](CCC(N)=O)NC(=O)[C@H](CO)NC(=O)[C@@H](N)Cc1c[nH]cn1)[C@@H](C)O)C(C)C)C(c1ccccc1)c1ccccc1)C(=O)N[C@@H](C)C(=O)N[C@@H](C)C(=O)N[C@@H](CCC(N)=O)C(=O)N[C@@H](CC(=O)O)C(=O)N[C@@](C)(Cc1ccccc1)C(=O)N[C@H](C(=O)N[C@@H](CCC(=O)O)C(=O)NC(C)(C)C(=O)N[C@@H](CC(C)C)C(=O)N[C@@H](C)C(=O)N[C@@H](CC(N)=O)C(=O)N[C@H](C(N)=O)[C@@H](C)O)C(C)C)C(=O)O)C(=O)O [Peptide 47] (H-HSQGS[αMeF]TSDVSK[Dip]LDSK([PEG2-PEG2-γGlu-γGlu-Stearoyl])AAQD[αMeF]VE[Aib]LANT-NH2; N-terminus assumed) | 51.4%
5 | 54% | 35% | 22% | 8% | 1.4 pM | 2.6 | 1.85 pM | CCCCCCCCCCCCCCCCCC(=O)N[C@@H](CCC(=O)N[C@@H](CCC(=O)NCCOCCOCCC(=O)NCCOCCOCCC(=O)NCCCC[C@H](NC(=O)[C@H](CO)NC(=O)[C@H](CC(=O)O)NC(=O)[C@H](CC(C)C)NC(=O)[C@@H](NC(=O)[C@H](CCCCN)NC(=O)[C@H](CO)NC(=O)[C@@H](NC(=O)[C@H](CC(=O)O)NC(=O)[C@H](CO)NC(=O)[C@@H](NC(=O)[C@](C)(Cc1ccccc1)NC(=O)[C@H](CO)NC(=O)CNC(=O)[C@H](CCC(N)=O)NC(=O)[C@H](CO)NC(=O)[C@@H](N)Cc1c[nH]cn1)[C@@H](C)O)C(C)C)[C@@H](C)CC)C(=O)N[C@@H](C)C(=O)N[C@@H](C)C(=O)N[C@@H](CCC(N)=O)C(=O)N[C@@H](CC(=O)O)C(=O)N[C@@](C)(Cc1ccccc1)C(=O)N[C@H](C(=O)N[C@@H](CCC(N)=O)C(=O)NC(C)(C)C(=O)N[C@H](C(=O)N[C@H](C(=O)N[C@@H](CC(N)=O)C(=O)N[C@H](C(N)=O)[C@@H](C)O)[C@@H](C)CC)[C@@H](C)CC)C(C)C)C(=O)O)C(=O)O [Peptide 117] (H-HSQGS[αMeF]TSDVSKILDSK([PEG2-PEG2-γGlu-γGlu-Stearoyl])AAQD[αMeF]VQ[Aib]IINT-NH2; N-terminus assumed) | –
